According to patent US20060153933A1 (priority 2002, published 2006):
Where “and” joins values, the source holds several entries; their conditions need not be identical. Identical values can stand only once. Like-named read-outs stand apart in the source and are kept apart here.

What was measured:
Type in all cases: in vivo
[1] = system: Phytophthora infestans (PHYTIN); details: 1DC
[2] = system: Plasmopara viticola (PLASVI); details: 1DC
[3] = system: Phytophthora infestans (PHYTIN); test: whole plant or invertebrate; details: for pest or weed control at 1.85 ppm: read-out: % Disease Control (observed); for pest or weed control at 1.9 ppm: 1.90 ppm alone
[4] = system: Plasmopara viticola (PLASVI); test: whole plant or invertebrate; details: for pest or weed control at 0.21 ppm: 0.21 ppm alone
[5] = PHYTIN 3DP, applied alone at 1.1 ppm
[6] = PLASVI 3DP, applied alone at 1.1 ppm
[7] = Plasmopara viticola, 72 h, read-out: % Disease Control (observed), 3DP, 5.56 ppm alone
[8] = Phytophthora infestans, 72 h, read-out: % Disease Control (observed), 3DP, 0.60 ppm alone

COC(=O)C(C)N(C(=O)Cc1ccccc1)c1c(C)cccc1C (centres unmarked) [Benalaxyl, benalaxyl]
% Disease Control (Observed) ([1]; 1.90 ppm alone): 8.8%
% Disease Control (Observed) ([1]; 16.70 ppm alone): 12.3%
% Disease Control (Observed) ([2]; 0.60 ppm alone): 24.6%

CC(C)OC(=O)N[C@H](C(=O)N[C@H](C)c1nc2ccc(F)cc2s1)C(C)C [Benthivalicarb, benthivalicarb]
% Disease Control (Observed) ([3]; 1DP, 0.62 ppm alone): 31.6%
% Disease Control (Observed) ([4]; 1DP, 0.62 ppm alone): 57.9%
% Disease Control (Observed) ([1]; 0.62 ppm alone): 28.1%

CCNC(=O)NC(=O)/C(C#N)=N/OC [Cymoxanil, cymoxanil]
% Disease Control (Observed) [3, 5]: 1.8%
% Disease Control (Observed) [4, 6]: 17.5%
% Disease Control (Observed) ([1]; 16.7 ppm alone): 49.1%
% Disease Control (Observed) ([2]; 5.56 ppm alone): 10.5%
% Disease Control (Observed) ([2]; 16.70 ppm alone): 35.1%

COc1ccc(C(=CC(=O)N2CCOCC2)c2ccc(Cl)cc2)cc1OC [Dimethomorph, dimethomorph]
% Disease Control (Observed) ([3]; PHYTIN 3DP, applied alone at 1.4 ppm): 3.5%
pest or weed control at 1.85 ppm ([3]; Phytophthora infestans, 72 h): 12.3%
pest or weed control at 0.62 ppm ([3]; Phytophthora infestans, 72 h, read-out: % Disease Control (observed), 3DP, 0.62 ppm alone): 0%
% Disease Control (Observed) ([4]; PLASVI 3DP, applied alone at 0.5 ppm): 3.5%
% Disease Control (Observed) ([4]; PLASVI 3DP, applied alone at 1.4 ppm): 22.8%
pest or weed control at 1.85 ppm ([4]; Plasmopara viticola, 72 h, read-out: % Disease Control (observed), 3DP, 1.85 ppm alone): 5.3%
pest or weed control at 5.56 ppm [4, 7]: 63.2%
% Disease Control (Observed) ([1]; 5.56 ppm alone): 0.0%
% Disease Control (Observed) ([1]; 16.70 ppm alone): 29.8%
% Disease Control (Observed) ([1]; 50.00 ppm alone): 33.3%
% Disease Control (Observed) ([2]; 5.56 ppm alone): 8.8%

CC[C@H](CS(=O)(=O)C(C)c1ccc(C#N)cc1)NC(=O)Oc1ccc(F)cc1 (stereo partly drawn) [Formula III, 4-fluorophenyl(1S)-1-({[(1R,S)-(4-cyanophenyl)ethyl]sulfonyl}methyl)-propylcarbamate]
% Disease Control (Observed) ([3]; 4DP, 0.60 ppm alone): 15.8%
% Disease Control (Observed) ([3]; 4DP, 2.80 ppm alone): 34.2%
% Disease Control (Observed) ([3]; 4DP, 5.60 ppm alone): 21.10%
% Disease Control (Observed) ([3]; PHYTIN 2DP, applied alone at 0.4 ppm): 5.3%
% Disease Control (Observed) ([3]; PHYTIN 2DP, applied alone at 1.1 ppm): 15.8%
% Disease Control (Observed) ([3]; PHYTIN 2DP, applied alone at 5.56 ppm): 12.3%
% Disease Control (Observed) ([3]; PHYTIN 3DP, applied alone at 0.62 ppm): 3.5%
% Disease Control (Observed) [3, 5]: 12.3%
% Disease Control (Observed) ([3]; PHYTIN 6DP, applied alone at 1.1 ppm): 3.5%
% Disease Control (Observed) ([3]; PHYTIN 6DP, applied alone at 3.3 ppm): 33.3%
pest or weed control at 0.6 ppm ([3]; Phytophthora infestans, 24 h, read-out: % Disease Control (observed), 1DP, 0.60 ppm alone): 3.5%
pest or weed control at 1.9 ppm ([3]; Phytophthora infestans, 24 h, read-out: % Disease Control (observed), 1DP): 78.6%
pest or weed control at 0.62 ppm ([3]; Phytophthora infestans, 48 h, read-out: % Disease Control (observed), 2DP, 0.62 ppm alone): 8.8%
pest or weed control at 5.56 ppm ([3]; Phytophthora infestans, 48 h, read-out: % Disease Control (observed), 2DP, 5.56 ppm alone): 12.3%
pest or weed control at 0.21 ppm ([3]; Phytophthora infestans, 72 h, read-out: % Disease Control (observed), 3DP, 0.21 ppm alone): 0%
pest or weed control at 0.6 ppm [3, 8]: 73.7%
pest or weed control at 0.9 ppm ([3]; Phytophthora infestans, 72 h, read-out: % Disease Control (observed), 3DP, 0.90 ppm alone): 1.8%
pest or weed control at 2.8 ppm ([3]; Phytophthora infestans, 72 h, read-out: % Disease Control (observed), 3DP, 2.80 ppm alone): 47.4%
pest or weed control at 5.56 ppm ([3]; Phytophthora infestans, 72 h, read-out: % Disease Control (observed), 3DP, 5.56 ppm alone): 57.9%
pest or weed control at 5.56 ppm ([3]; Phytophthora infestans, 72 h, read-out: % Disease Control (observed), Table 10, PHYTIN (3DP) as printed, 5.56 ppm alone): 31.6%
pest or weed control at 1.85 ppm ([3]; Phytophthora infestans, 96 h): 38.6%
% Disease Control (Observed) ([3]; in vivo): 26.3%
% Disease Control (Observed) ([4]; 1DP, 0.20 ppm alone): 8.8%
% Disease Control (Observed) ([4]; 1DP, 0.67 ppm alone): 49.1%
% Disease Control (Observed) ([4]; 4DP, 1.90 ppm alone): 26.30%
% Disease Control (Observed) ([4]; PLASVI 2DP, applied alone at 0.4 ppm): 8.8%
% Disease Control (Observed) ([4]; PLASVI 2DP, applied alone at 1.1 ppm): 22.8%
% Disease Control (Observed) ([4]; PLASVI 2DP, applied alone at 1.85 ppm): 7.0%
% Disease Control (Observed) ([4]; PLASVI 2DP, applied alone at 3.3 ppm): 42.1%
% Disease Control (Observed) ([4]; PLASVI 2DP, applied alone at 5.56 ppm): 19.3%
% Disease Control (Observed) ([4]; PLASVI 3DP, applied alone at 0.4 ppm): 1.8%
% Disease Control (Observed) [4, 6]: 12.3%
% Disease Control (Observed) ([4]; PLASVI 3DP, applied alone at 5.56 ppm): 31.6%
% Disease Control (Observed) ([4]; PLASVI 6DP, applied alone at 3.3 ppm): 12.3%
pest or weed control at 0.2 ppm ([4]; Plasmopara viticola, 24 h, read-out: % Disease Control (observed), 1DP, 0.20 ppm alone): 1.8%
pest or weed control at 0.21 ppm ([4]; Plasmopara viticola, 24 h, read-out: % Disease Control (observed), 1DP): 14%
pest or weed control at 0.62 ppm ([4]; Plasmopara viticola, 24 h, read-out: % Disease Control (observed), 1DP, 0.62 ppm alone): 17.5%
pest or weed control at 1.85 ppm ([4]; Plasmopara viticola, 24 h, read-out: % Disease Control (observed), 1DP, 1.85 ppm alone): 71.9%
pest or weed control at 5.56 ppm ([4]; Plasmopara viticola, 24 h, read-out: % Disease Control (observed), 1DP, 5.56 ppm alone): 78.9%
pest or weed control at 1.85 ppm ([4]; Plasmopara viticola, 24 h, read-out: % Disease Control (observed), 1DP, Table 14, 1.85 ppm alone): 24.6%
pest or weed control at 5.56 ppm ([4]; Plasmopara viticola, 24 h, read-out: % Disease Control (observed), 1DP, Table 14, 5.56 ppm alone): 78.9%
pest or weed control at 0.62 ppm ([4]; Plasmopara viticola, 48 h, read-out: % Disease Control (observed), 2DP, 0.62 ppm alone): 1.8%
pest or weed control at 1.85 ppm ([4]; Plasmopara viticola, 48 h, read-out: % Disease Control (observed), 2DP, 1.85 ppm alone): 15.8%
pest or weed control at 5.56 ppm ([4]; Plasmopara viticola, 48 h, read-out: % Disease Control (observed), 2DP, 5.56 ppm alone): 56.1%
pest or weed control at 0.21 ppm ([4]; Plasmopara viticola, 72 h, read-out: % Disease Control (observed), 3DP): 0%
pest or weed control at 0.3 ppm ([4]; Plasmopara viticola, 72 h, read-out: % Disease Control (observed), 3DP, 0.30 ppm alone): 0%
pest or weed control at 5.56 ppm [4, 7]: 40.4%
pest or weed control at 1.85 ppm ([4]; Plasmopara viticola, 168 h, read-out: % Disease Control (observed), 7DP, 1.85 ppm alone): 14%
pest or weed control at 5.56 ppm ([4]; Plasmopara viticola, 168 h, read-out: % Disease Control (observed), 7DP, 5.56 ppm alone): 52.6%
% Disease Control (Observed) ([1]; 0.62 ppm alone): 0.0%
% Disease Control (Observed) ([1]; 0.90 ppm alone): 0.0%
% Disease Control (Observed) ([1]; 1.85 ppm alone): 35.1%
% Disease Control (Observed) ([1]; 1.90 ppm alone): 21.1%
% Disease Control (Observed) ([1]; 5.56 ppm alone): 5.3%
% Disease Control (Observed) ([1]; 8.30 ppm alone): 8.8%
% Disease Control (Observed) ([1]; 16.70 ppm alone): 31.6%
% Disease Control (Observed) ([2]; 0.60 ppm alone): 5.3%
% Disease Control (Observed) ([2]; 0.90 ppm alone): 0.0%
% Disease Control (Observed) ([2]; 1.85 ppm alone): 17.5%
% Disease Control (Observed) ([2]; 2.80 ppm alone): 8.8% and 16.0%
% Disease Control (Observed) ([2]; 5.56 ppm alone): 17.5%
% Disease Control (Observed) ([2]; 16.70 ppm alone): 45.6%

Cc1ccc(C(C)NC(=O)[C@@H](NC(=O)OC(C)C)C(C)C)cc1 (some centres unmarked) [Iprovalicarb, iprovalicarb]
% Disease Control (Observed) ([3]; 3DP, 5.56 ppm alone): 1.8%
% Disease Control (Observed) ([3]; 3DP, 16.70 ppm alone): 33.3%
% Disease Control (Observed) ([4]; 3DP, 1.85 ppm alone): 8.8%
% Disease Control (Observed) ([4]; 3DP, 5.56 ppm alone): 26.3%
% Disease Control (Observed) ([2]; 5.56 ppm alone): 40.0%
% Disease Control (Observed) ([2]; 16.70 ppm alone): 50.0%

Cc1cccc(C)c1N(C(=O)CCl)C1CCOC1=O (centres unmarked) [Ofurace, ofurace]
pest or weed control at 0.6 ppm [3, 8]: 0%
pest or weed control at 1.9 ppm ([3]; Phytophthora infestans, 72 h, read-out: % Disease Control (observed), 3DP): 0%
% Disease Control (Observed) ([1]; 1.90 ppm alone): 12.3%
% Disease Control (Observed) ([1]; 5.60 ppm alone): 61.0%
% Disease Control (Observed) ([2]; 0.60 ppm alone): 21.1%
